The record followed here is PubChem BioAssay AID2305 (GlaxoSmithKline (GSK), 2010).

The subject of the experiment is P. falciparum 3D7 growth, pLDH absorbance. Nature of the experiment: P. falciparum 3D7 growth inhibition, dose response, strain 3D7 (AID 2305).

In turn, `Cc1cccc(CNc2nc(C)cc(N[C@@H](Cc3ccccc3)C(=O)NC3CCCC3)n2)c1` registered an IC50 of 650 nM. The compound `COc1ccc(CCN(C)CCOc2ccc(NC(=O)c3cccc4cc5ccccc5nc34)cc2)cc1OC` had an IC50 of 680 nM. Then `O=[N+]([O-])c1cccc(CNCC2CCN(Cc3ccc(C(F)(F)F)cc3)CC2)c1`, with 250 nM; and `Nc1ncc(-c2ccc(Br)cc2)c(N)n1`, with 920 nM; and `FC(F)(F)c1ccc2nc(-c3ccc(-c4ccc(CN5CCN(c6ccncc6)CC5)cc4)s3)[nH]c2c1`, with 150 nM. Take `COc1ccc(Nc2ccnc3cc(-c4ccccn4)ccc23)cc1OC`: the IC50 was 30 nM.

`Cc1cc(C(=O)N(Cc2ccc(-c3ccc(CNCCc4ccc(S(C)(=O)=O)cc4)cn3)cc2)C(C)CN(C)C)ccc1[N+](=O)[O-]` (stereo unspecified) displayed an IC50 of 790 nM. The figure for `CN(C)CCOc1ccc(-c2cc(-c3ccncc3)c(-c3ccc(Cl)c(O)c3)o2)cc1` is 210 nM; for `Cc1csc(NC2=NCCN2)n1` it is 470 nM; for `CCOC(=O)CCCN1C(=O)CN=C(c2ccccc2)c2cc(Cl)ccc21` it is 780 nM. The figure for `CN1CCN(CCCN(Cc2cccc(-c3ccc(CNC4CCCC4)cc3)c2)C(=O)CCC2CCCC2)CC1` is 760 nM; for `CCNC(C)(C)CN(Cc1ccc(-c2ccc(C(F)(F)F)cc2)cc1)C(=O)Cn1c(SCc2ccc(F)cc2)nc(=O)c2c1CCC2` it is 990 nM. The figure for `COc1ccc(OC)c(NC(=O)C2c3ccccc3C(=O)N(CC(C)C)C2c2cccs2)c1` (stereo unspecified) is 810 nM; for `CC(=O)C1(c2ccccc2)CCN(CCC2(c3ccc(Cl)c(Cl)c3)CN(C(=O)Nc3cc(F)cc(F)c3)CCO2)CC1` (stereo unspecified) it is 1480 nM.

Compound `Cc1cc(N(C)C)nc(Nc2ccc(NC(=O)CCc3ccccc3)cc2)n1` displayed a 50% inhibitory concentration (IC50) of 850 nM.

`OCC1CCN(Cc2ccc(-c3ccc(-c4nc5ccccc5[nH]4)cc3)cc2)CC1` yielded an IC50 of 900 nM. The IC50 values of the last two compounds are within 1.5-fold of each other. Then `O=C(Nc1ccc(-c2cccc(CN3CCC(O)CC3)c2)cc1)c1cccc(Cl)c1`, with 830 nM. Then `COc1cc(Cn2ccc3c4c(N)nc(N)nc4ccc32)cc(OC)c1OC`, with 10 nM; and `CC(=O)N(Cc1cccc(-c2cccc(CNCCc3ccccc3)c2)c1)C1CCN(Cc2ccccc2)CC1`, with 670 nM; and `O=S(=O)(Nc1cccc(CCN2CCC(N3CCCCC3)CC2)c1)c1ccc2c(c1)OCCO2`, with 1230 nM. The figure for `CCc1cn2c3c(cc(C(=O)N[C@@H](Cc4cccc(Cl)c4)[C@H](O)CNC4CCOCC4)cc13)N(C)S(=O)(=O)CC2` is 40 nM.
